Converted amounts (≈) assume the structure as drawn. Where two headings read alike, the source gives them in different places.
Assays:
[1] = system: herpes simplex virus (HSV); conditions: compared with corresponding deoxyuridine analogs; cited from earlier work
[2] = system: herpesvirus infected cells; conditions: cells in which deoxycytidine deaminase is present; cited from earlier work
[3] = system: HSV type 1; conditions: cited from earlier work
[4] = system: HSV type 2; conditions: cited from earlier work
[5] = system: equine herpesvirus; conditions: cited from earlier work
[6] = system: Herpes Simplex Virus--Type 1 (HSV-1) strain 2931; experiment: Capacity to suppress HSV-1 replication in monolayers of Vero cells; format: cell-based; conditions: 24 hr, read-out: Anti-viral Activity (% reduction of HSV1 titer); for activity at 0.01 µg/mL: Human alphaherpesvirus 1, 0.01 μg/ml; for activity at 0.1 µg/mL: Human alphaherpesvirus 1, 0.1 μg/ml; for activity at 1 µg/mL: Human alphaherpesvirus 1, 1.0 μg/ml; for activity at 10 µg/mL: Human alphaherpesvirus 1, 10 μg/ml; for activity at 100 µg/mL: Human alphaherpesvirus 1, 100 μg/ml
Description: The capacity of 2'-fluoro-arabinosyl nucleosides (Formulas IV and V shown below) to suppress replication of Herpes Simplex virus-type 1 (HSV-1) in monolayers of Vero cells is shown in Table I.
Vero cell monolayers were infected with approximately 1 plaque forming unit (PFU) per cell of Herpes Simplex Virus--Type 1 (HSV-1) strain 2931 and incubated for 2 hr. Maintenance media containing the various concentrations of drugs were used to overlay the monolayers. Supernatant fluids were collected 24 hr. later and titered on Vero cell monolayers described in Lopez et al, Ann. N.Y. Acad. Sci., 284, 351 (1977). Percent inhibition over controls was calculated.

[7] = system: L51784; experiment: Cytotoxicity, inhibition of growth of L51784 cells in vitro; format: cell-based; conditions: 96 h, read-out: Cytoxicity ID50
Description: (§1) *****Concentration required for 50% inhibition of growth of cells in
(§2) vitro after 96 hrs. incubation at 37° C.

[8] = system: P815; experiment: Cytotoxicity, inhibition of growth of P815 cells in vitro; format: cell-based; conditions: Mus musculus, 96 hrs. incubation at 37° C., read-out: Cytoxicity ID50
Description: as §1, §2

[9] = system: Herpes Simplex Virus - type 1; experiment: Inhibition of Herpes Simplex Virus type 1 replication (effective doses); format: cell-based; conditions: for EC50: read-out: ED50 (the source's name)
Description: (§3) Compounds of the invention show anti-viral and anti-tumor activity. 1-(2-Deoxy-2-fluoro-β-D-arabinofuranosyl)-5-iodocytosine inhibits Herpes Simplex Virus type 1 and type 2 replication. HFEM, Patton, 2931, and F-strain HSV-1 and 333 and G-strain HSV-2 are affected at concentrations of 1-(2-deoxy-2-fluoro-β-D-arabinofuranosyl)-5-iodocytosine 0.01 μM (approximately 0.004 μg/ml).
(§4) The effective doses for 1-(2-deoxy-2-fluoro-β-D-arabinofuranosyl)-5-iodocytosine are given below. 1-(2-deoxy-2-fluoro-β-D-arabinofuranosyl)-5-iodocytosine is diluted in physiological saline, filter sterilized, and inoculated. This compound is readily soluble at concentrations of 25 mg/ml in saline. In mouse studies, the drug is inoculated by the intraperitoneal route.

[10] = system: Herpes Simplex Virus - type 2; experiment: Inhibition of Herpes Simplex Virus type 2 replication (effective doses); format: cell-based; conditions: for EC50: read-out: ED50 (the source's name)
Description: as §3, §4

[11] = system: Cytomegalovirus (CMV strain AD 169); experiment: Effective dose against Cytomegalovirus strain AD-169; CMV plaque formation on WI-38 cells; format: cell-based; conditions: for minimal effective concentration: Human betaherpesvirus 5, CMV strain AD 169, WI-38 cells
Description: as §4

[12] = system: thymidine kinase negative strain of HSV-1 (HSV-1 TK^-); experiment: Activity against thymidine kinase negative HSV-1; format: cell-based; conditions: Human alphaherpesvirus 1, read-out: not affected at concentrations of up to
[13] = Solubility in saline; format: physicochemical; conditions: read-out: readily soluble at concentrations of
Description: as §4

[14] = system: HSV-1 strain 2931; experiment: In vivo activity in A/J mice infected with HSV-1 strain 2931; conditions: for mice surviving the 21 day experiment: starting 24 hours after inoculation
Description: as §4
1-(2-deoxy-2-fluoro-β-D-arabinofuranosyl)-5-iodocytosine was also shown to be active in vivo. A/J mice were inoculated with approximately 50 LD50 of HSV-1 strain 2931 intraperitoneally and then treated with 1-(2-deoxy-2-fluoro-β-D-arabinofuranosyl)-5-iodocytosine starting 24 hours later. 1-(2-deoxy-2-fluoro-β-D-arabinofuranosyl)-5-iodocytosinewas given at 10 and 1 mg/kg/da for 5 days. Untreated mice died 8 days after inoculation. Five of 10 mice treated with 10 mg/kg/day survived the 21 day experiment. Two of 10 treated with 1 mg/kg/da survival the 21 day experiment and the remainder died an average of 10 days after inoculation.

[15] = system: K 562 cells, a cell line of chronic myologenous leukemia cells; experiment: Suppression of replication of K 562 cells in vitro; format: cell-based; conditions: Homo sapiens, K562, read-out: concentration found to suppress replication of K 562 cells
Description: Since 1-(2-deoxy-2-fluoro-β-D-arabinofuranosyl)-5-iodocytosine was active against a virus which uses fetal thymidine kinase and since many tumor cells express high concentrations of fetal thymidine kinase, it was tested as a selective anti-tumor agent.

[16] = Toxicity to normal lymphoblastoid cells; format: cell-based; conditions: read-out: not toxic at concentrations of up to
Description: Since 1-(2-deoxy-2-fluoro-β-D-arabinofuranosyl)-5-iodocytosine was not toxic to normal lymphoblastoid cells at concentrations of up to 10 μM, the compound is believed to affect tumor cells at concentrations 1/100th those needed to suppress normal cell replication. Compounds of the invention can be used as a selective treatment for tumors expressing the fetal thymidine kinase which includes most tumors.

[17] = system: several DNA virus; conditions: cell culture; cited from earlier work
[18] = system: herpes infections; conditions: therapeutic trials in herpes infections; cited from earlier work
[19] = system: anti-viral; conditions: cited from earlier work

SMILES	activity at 0.01 µg/mL [6] [%]	activity at 0.1 µg/mL [6] [%]	activity at 1 µg/mL [6] [%]	activity at 10 µg/mL [6] [%]	IC50 [7] [µg/mL]	IC50 [8] [µg/mL]	also measured
Nc1nc(=O)n([C@H]2C[C@H](O)[C@@H](CO)O2)cc1Br [5-Bromo-2'-deoxycytidine]							inhibition of HSV replication [1]: as effectively as their corresponding deoxyuridine analogs
Cc1cn([C@@H]2O[C@H](CO)[C@@H](O)[C@@H]2O)c(=O)nc1N [5-Methyl-ara-C]							activity against herpesvirus infected cells [2]: active
Nc1nc(=O)n([C@H]2C[C@H](O)[C@@H](CO)O2)cc1I [5-iodo-2'-deoxycytidine]							inhibition of HSV replication [1]: as effectively as their corresponding deoxyuridine analogs
Cc1cn([C@@H]2O[C@H](CO)[C@@H](O)[C@@H]2O)c(=O)[nH]c1=O [Ara-T]							activity against HSV type 1 [3]: active; activity against HSV type 2 [4]: active; activity against equine herpesvirus [5]: active
Nc1ccn([C@@H]2O[C@H](CO)[C@@H](O)[C@@H]2F)c(=O)n1 [IVa, 1-(2-deoxy-2-fluoro-β-D-arabinofuranosyl)cytosine, reference compound]	< 90	90 to 99	90 to 99	99.9 to 100	0.05 (≈ 0.204 µM)	0.05 (≈ 0.204 µM)	activity at 100 µg/mL [6]: 100%
Nc1nc(=O)n([C@@H]2O[C@H](CO)[C@@H](O)[C@@H]2F)cc1F [IVb, 1-(2-deoxy-2-fluoro-β-D-arabinofuranosyl)-5-fluorocytosine]	< 90	90 to 99	99 to 99.9	99.9 to 100	0.5 (≈ 1.9 µM)	0.4 (≈ 1.52 µM)	
Nc1nc(=O)n([C@@H]2O[C@H](CO)[C@@H](O)[C@@H]2F)cc1Cl [IVc, 1-(2-deoxy-2-fluoro-β-D-arabinofuranosyl)-5-chlorocytosine]	< 90	< 90	< 90	99.9 to 100	1.4 (≈ 5.01 µM)	~1 (≈ 3.58 µM)	
Nc1nc(=O)n([C@@H]2O[C@H](CO)[C@@H](O)[C@@H]2F)cc1Br [IVd, 1-(2-deoxy-2-fluoro-β-D-arabinofuranosyl)-5-bromocytosine]	< 90	90 to 99	99 to 99.9	100	~10 (≈ 30.9 µM)	> 10	
Nc1nc(=O)n([C@@H]2O[C@H](CO)[C@@H](O)[C@@H]2F)cc1I [IVe, 1-(2-deoxy-2-fluoro-β-D-arabinofuranosyl)-5-iodocytosine]	90 to 99	99 to 99.9	100	100	48 (≈ 129 µM)	14 (≈ 37.7 µM)	EC50 ([9]; Human alphaherpesvirus 1, HSV-1 strain 2931): 7 nM; EC50 ([9]; Human alphaherpesvirus 1, HSV-1 strain HFEM): < 10 nM; EC50 ([9]; Human alphaherpesvirus 1, HSV-1 strain McIntyre): < 10 nM; EC50 ([9]; Human alphaherpesvirus 1, HSV-1 strain Patton): 10 nM; minimal effective concentration ([9]; Human alphaherpesvirus 1, HFEM, Patton, 2931 and F-strain HSV-1, read-out: concentration at which HSV-1 strains are affected): 0.01 µM; EC50 ([10]; Human alphaherpesvirus 2, HSV-2 strain 333): 50 nM; EC50 ([10]; Human alphaherpesvirus 2, HSV-2 strain G): 10 nM; minimal effective concentration ([10]; Human alphaherpesvirus 2, 333 and G-strain HSV-2, read-out: concentration at which HSV-2 strains are affected): 0.01 µM; EC50 ([11]; Human betaherpesvirus 5, AD169, WI-38, CMV strain AD-169, read-out: ED50 (the source's name)): 1000 nM; minimal effective concentration ([11]; read-out: concentration found to reduce CMV plaque formation): 1 µM; minimal effective concentration ([11]; read-out: concentration found to reduce CMV plaque formation (mass units)): 0.4 µg/mL; minimal effective concentration [12]: > 10 µM; solubility [13]: ≥ 25 mg/mL; activity at 100 µg/mL [6]: 100%; average time of death after inoculation (non-surviving mice) ([14]; 1 mg/kg/da for 5 days, intraperitoneal, remainder of mice): 10 days; mice surviving the 21 day experiment ([14]; 1 mg/kg/da for 5 days, intraperitoneal): Two of 10; mice surviving the 21 day experiment ([14]; 10 mg/kg/day for 5 days, intraperitoneal): Five of 10; in vivo activity against HSV-1 ([14]; 10 and 1 mg/kg/da for 5 days): active in vivo against HSV-1; minimal effective concentration [15]: 0.04 µg/mL; MNTC [16]: > 10 µM
O=c1ccn([C@@H]2O[C@H](CO)[C@@H](O)[C@@H]2F)c(=O)[nH]1 [Va]	< 90	< 90	99 to 99.9	99 to 99.9	> 10	> 10	
O=c1[nH]c(=O)n([C@@H]2O[C@H](CO)[C@@H](O)[C@@H]2F)cc1F [Vb, 1-(2-deoxy-2-fluoro-β-D-arabinofuranosyl)-5-fluorouracil]	< 90	99 to 99.9	100	100	1 (≈ 3.79 µM)	0.7 (≈ 2.65 µM)	
O=c1[nH]c(=O)n([C@@H]2O[C@H](CO)[C@@H](O)[C@@H]2F)cc1Cl [Vc, 1-(2-deoxy-2-fluoro-β-D-arabinofuranosyl)-5-chlorouracil]	< 90	< 90	< 90	100	1.4 (≈ 4.99 µM)	3.4 (≈ 12.1 µM)	
O=c1[nH]c(=O)n([C@@H]2O[C@H](CO)[C@@H](O)[C@@H]2F)cc1Br [Vd, 1-(2-deoxy-2-fluoro-β-D-arabinofuranosyl)-5-bromouracil]	< 90	< 90	99 to 99.9	100	0.9 (≈ 2.77 µM)	1.6 (≈ 4.92 µM)	
O=c1[nH]c(=O)n([C@@H]2O[C@H](CO)[C@@H](O)[C@@H]2F)cc1I [Ve, 1-(2-deoxy-2-fluoro-β-D-arabinofuranosyl)-5-iodouracil]	< 90	90 to 99	99.9 to 100	100	0.9 (≈ 2.42 µM)	0.8 (≈ 2.15 µM)	
Nc1ccn([C@@H]2O[C@H](CO)[C@@H](O)[C@@H]2O)c(=O)n1 [ara-C, 1-β-D-Arabinofuranosylcytosine]							inhibition of multiplication of several DNA virus [17]: inhibits the multiplication of several DNA virus in cell culture; therapeutic to toxic ratio [18]: unity
O=c1ccn([C@@H]2O[C@H](CO)[C@@H](O)[C@@H]2O)c(=O)[nH]1 [ara-U, 1-β-D-arabinofuranosyluracil]							anti-viral activity [19]: devoid of anti-viral or anti-cancer activity

Reference: US4211773A, “5-Substituted 1-(2'-Deoxy-2'-substituted-β-D-arabinofuranosyl)pyrimidine nucleosides” (Sloan Kettering Institute for Cancer Research, priority 1978, dated 1980)
